# Measurements as given in patent US20060194821A1, “Compounds inhibiting the aggregation of superoxide dismutase-1” (The Brigham and women's Hospital, Inc., priority 2005, published 2006).
# Entries after “also recorded” stand apart in the source; their conditions may differ.
# Columns and labels:
# Format in all cases: biochemical
# [1] = molecular target: T1, A4V, a FALS-linked variant of SOD-1 (Homo sapiens, UniProt P00441, A5V); experiment: A4V aggregation assay with EDTA (SOD-1 dimer loss by gel filtration); conditions: 100 μM compound, 50 μM protein
# T1 construct: made in house
# T1 sequence (P00441 2-154 A5V limits assumed): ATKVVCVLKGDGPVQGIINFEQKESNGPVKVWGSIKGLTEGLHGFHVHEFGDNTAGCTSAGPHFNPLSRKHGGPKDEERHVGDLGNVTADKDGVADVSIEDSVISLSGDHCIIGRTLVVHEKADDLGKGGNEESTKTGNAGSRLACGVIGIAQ
# Protocol: SOD-1 dimer was purified on a Superdex 75™ (16/60) gel filtration column (Pharmacia) to produce starting material for each aggregation experiment. Metal analyses were carried by inductive coupled plasma mass-spectrometry (ICP-MS). WT and G93A were nearly fully metallated, and G85R and A4V were deficient in zinc and copper, respectively.
# (§1) Aggregation assays for screening were prepared by adding a stock solution of compound to a protein solution (final concentrations: 100 μM compound, 50 μM protein). Following a 15 minute preincubation period at 37° C., 5 mM EDTA was added to initiate aggregation. Aliquots were periodically removed and analyzed for the amount of SOD-1 dimer present. This value correlated in all cases with the appearance of oligomers by gel filtration on a Superdex 200™ (3.2/30) gel filtration column (Pharmacia). All chromatography was performed in TBS, pH 7.4 (20 mM Tris, 150 mM NaCl) on a Waters 2690 Alliance HPLC and monitored at 220 and 276 nm. […] Assays in the absence of EDTA were carried as described previously (16). For Apo-A4V experiments, buffers were treated with CHELEX (except those containing EDTA) and experiments were performed in plastic tubes to avoid introduction of contaminating zinc into the Apo-protein.
# [2] = molecular target: T2, A4V/V7F/V148F (Homo sapiens, UniProt P00441, A5V/V149F/V8F); experiment: Aggregation of A4V/V7F/V148F (putative binding site disturbed); conditions: binding site disturbed by V7F/V148F
# T2 construct: made in house; host or cells: E. coli
# T2 sequence (P00441 2-154 A5V/V8F/V149F limits assumed): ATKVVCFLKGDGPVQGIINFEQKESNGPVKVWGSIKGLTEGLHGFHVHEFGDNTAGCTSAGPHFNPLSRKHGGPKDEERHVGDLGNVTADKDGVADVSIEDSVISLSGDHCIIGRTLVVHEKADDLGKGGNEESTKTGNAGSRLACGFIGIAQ
# Protocol: as §1
# To investigate the effect of partially capping the cavity with hydrophobic moieties, residues V148 and V7, the sidechains of which protruded into the cavity, were mutated to phenylalanine. […] Filling cavities in protein structures with hydrophobic side chains often stabilizes the protein structure (30, 31), lysozyme being a classic example (32).
# Three variants of SOD-1, in which the V7F and V148F mutations were introduced into WT, A4V and G93A, were cloned, expressed in E. coli and purified as described previously (15). Each protein was subjected to guanidine chloride (GdnCl) unfolding and fluorescence intensity (348 nm) was monitored at 25° C. WT enzyme was completely unfolded at 3.5 M GdnCl (Cm=3.2 M, where Cm is the midpoint of transition), while A4V was completely unfolded at 1.9 M GdnCl (Cm=1.51 M). […] G93A/V7F/V148F was slightly more resistant to denaturation than G93A. No significant effect of the two V→F mutations on the denaturation of WT (i.e., WT vs. V7F/V148F) could be measured. The V→F mutations stabilized both A4V and G93A against EDTA induced aggregation. […] Similarly, G93A/V7F/V148F aggregated slightly more slowly than G93A.
# [3] = molecular target: T3, G93A (Homo sapiens, UniProt P00441, G94A); experiment: EDTA-induced aggregation of G93A
# T3 construct: made in house
# T3 sequence (P00441 2-154 G94A limits assumed): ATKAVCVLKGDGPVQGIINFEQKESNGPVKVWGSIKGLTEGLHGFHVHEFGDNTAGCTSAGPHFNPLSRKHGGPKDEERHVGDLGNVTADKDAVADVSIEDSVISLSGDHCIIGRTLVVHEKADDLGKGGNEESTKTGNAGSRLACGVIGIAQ
# Protocol: as §1
# [4] = molecular target: T4, G85R (Homo sapiens, UniProt P00441, G86R); experiment: EDTA-induced aggregation of G85R
# T4 construct: made in house
# T4 sequence (P00441 2-154 G86R limits assumed): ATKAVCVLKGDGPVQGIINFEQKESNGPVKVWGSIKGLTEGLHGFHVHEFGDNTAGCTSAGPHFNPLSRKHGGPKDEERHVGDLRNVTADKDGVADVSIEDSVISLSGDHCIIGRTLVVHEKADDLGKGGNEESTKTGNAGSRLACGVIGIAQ
# Protocol: as §1
# [5] = molecular target: T5, A4V (Homo sapiens, UniProt P00441, A5V); experiment: Guanidinium chloride unfolding of A4V (fluorescence); conditions: 5 μM protein, fluorescence 348 nm
# T5 construct: made in house
# T5 sequence (P00441 2-154 A5V limits assumed): as the sequence (P00441 2-154 A5V limits assumed) above
# Text: Equilibrium unfolding transition, as a function of GdnCl concentration, was monitored by fluorescence spectroscopy. The fluorescence measurements were done on a Hitachi f-4500 spectrofluorometer in a 1-cm cell connected to a circulation water bath. The excitation and emission wavelengths were fixed at 278 and 348 nm, respectively, after making appropriate corrections for buffer and GdnCl. The slit width was 5 nm for both monochromators. Each measurement was an average of five readings. Protein concentration used for fluorescence experiments was 5 μM. The data were analyzed directly for a two-state (N→U) transition as follows: the raw data for the GdnCl-induced denaturation studies were converted to fractions of the protein in the unfolded state (fu) as a function of GdnCl concentration using the equation: fu=Y0−(Yf+mf[GdnCl.])/(Yu+mu[GdnCl.])−(Yf+mf[GdnCl.]) where Y0 is the observed spectroscopic property, Yf and mf are the […] of the folded state baseline and Yu and mu represent the respective values of the unfolded baseline. The folded fraction was calculated as (fn=1−fu) and the equilibrium constant was determined by Keq=fu/fn. The free energy of unfolding was determined using the equation ΔG=−RT ln(Keq) where T is the temperature in Kelvin and R is the universal gas constant (1.987 cal mol−1 K−1).
# [6] = system: SOD; experiment: Testing of structural analogs for inhibition of SOD aggregation; conditions: Example 2, compounds of FIG. 2
# Protocol: as §1
# A structural analysis was performed on the 15 compounds found to be active in the assays described in Example 1 (see FIG. 1). […] Although most of the compounds tested were purchased commercially, two (1,2-di-[6-Mercapto-2H-[1,2,4]triazine-3,5-dione]ethane; and di-{5-[1H-pyrimidine-2,4-dione]methyl}thioether) were synthesized as described in Example 3.
change in the aggregation rate of A4V/V7F/V148F [2],inhibition of G93A aggregation [3],inhibition of G85R aggregation [4],stabilization of A4V against GdnCl induced unfolding (expressed as ΔG) [5],Compound,inhibition of A4V aggregation (in words) [1],inhibition of SOD aggregation by structural analogs [6]
no appreciable change,among the best inhibitors,among the best inhibitors,stabilized A4V nearly to WT levels,"Oc1ccc(Br)cc1/C=N/c1ccc(F)cc1 [Compound 4, 4-bromo-2-{(E)-[(4-fluorophenyl)imino]methyl}phenol]",most potent A4V aggregation inhibitors; also recorded: among the most potent aggregation inhibitors,
,,,,"O=c1[nH]cc(CSCc2c[nH]c(=O)[nH]c2=O)c(=O)[nH]1 [di-{5-[1H-pyrimidine-2,4-dione]methyl}thioether]",,most active
no appreciable change,among the best inhibitors,among the best inhibitors,stabilized A4V nearly to WT levels,"O=c1[nH]nc(SCc2ccc(Cl)cc2)c(=O)[nH]1 [Compound 3, 6-[(4-chlorobenzyl)thio]1,2,4-triazine-3,5(2H,4H)-dione]",most potent A4V aggregation inhibitors; also recorded: among the most potent aggregation inhibitors,
no appreciable change,among the best inhibitors,among the best inhibitors,stabilized A4V nearly to WT levels,"O=c1[nH]nc(SCc2ccc(F)cc2)c(=O)[nH]1 [Compound 7, 6-[(4-fluorobenzyl)thio]-1,2,4-triazine-3,5(2H,4H)-dione]",most potent A4V aggregation inhibitors; also recorded: among the most potent aggregation inhibitors,
,,,,"O=c1[nH]cc(CSc2n[nH]c(=O)[nH]c2=O)c(=O)[nH]1 [6-{[(2,4-dioxo-1,2,3,4-tetrahydropyrimidin-5-yl)methyl]thio}-1,2,4-triazine-3,5(2H,4H)-dione]",,most active
,,,,"O=c1[nH]c(=O)n(CCn2nc(S)c(=O)[nH]c2=O)nc1S [1,2-di-[6-Mercapto-2H-[1,2,4]triazine-3,5-dione]ethane]",,most active

Compound,change in the aggregation rate of A4V/V7F/V148F [2],inhibition of G93A aggregation [3],inhibition of G85R aggregation [4],stabilization of A4V against GdnCl induced unfolding (expressed as ΔG) [5],inhibition of A4V aggregation (in words) [1],inhibition of SOD aggregation by structural analogs [6]
"O=c1cc(Nc2ccc(Cl)cc2)[nH]c(=O)[nH]1 [Compound 2, 6-[(4-chlorophenyl)amino]pyrimidine-2,4(1H,4H)-dione]",no appreciable change,among the best inhibitors,among the best inhibitors,stabilized A4V nearly to WT levels; also recorded: stabilizes the A4V dimer to an extent comparable to the difference in stability between the invariably lethal A4V and WT SOD-1,most potent A4V aggregation inhibitors; also recorded: among the most potent aggregation inhibitors,
